Source: US20260165948A1, “A COMPOSITION FOR SKIN REGENERATION COMPRISING A CULTURE MEDIUM OF TONSIL-DERIVED MESENCHYMAL STEM CELLS, THE ANTIOXIDANT EFFECT OF WHICH IS ENHANCED BY N-ACETYLCYSTEINE (NAC)” (priority 2023, published 2026)

Legend:
[1] = tested on: tonsil-derived human MSCs (hMSC-T, passage 6); assay: Antioxidant activity (ROS assay) with PYBR challenge; type: cell-based; details: NAC pretreatment 10 mM and 20 mM for 24 hours, then PYBR 5, 10, 20 μg/mL for 24 hours; FIG. 5
Procedure: In order to evaluate antioxidant activity upon NAC treatment, tonsil-derived human MSCs (hMSC-T, passage 6) were seeded in a culture medium at a density of 1×10^4 cells/well. On the following day, NAC was treated at concentrations of 10 mM and 20 mM for 24 hours. Thereafter, the cells were washed with PBS and the medium was replaced, followed by treatment with PYBR at concentrations of 5, 10, and 20 μg/mL. After 24 hours, the cells were washed three times with PBS and incubated in 100 μL of ROS working solution at 37° C. for 30 minutes in the dark. Absorbance was then measured at 488/525 nm (FIG. 4). A group not treated with NAC was used as a positive control.

[2] = tested on: tonsil-derived human MSCs; assay: Determination of NAC pretreatment concentration (cell viability); details: NAC 10 mM, pretreatment for 24 hours; FIG. 1
Procedure: In order to determine the concentration of NAC for pretreatment of tonsil-derived human MSCs, the tonsil-derived human MSCs were pretreated with NAC prepared in Example 1 at concentrations of 2, 4, 6, 8, 10, 15, and 100 mM for 24 hours, and then cell viability was evaluated.

[3] = tested on: tonsil-derived human MSCs (hMSC-T, passage 6); assay: Cell viability upon NAC treatment (WST, absorbance at 450 nm) with PYBR challenge; type: cell-based; details: NAC pretreatment 10 mM and 20 mM for 24 hours, then PYBR 5, 10, 20 μg/mL for 24 hours; FIG. 3
Procedure: In order to evaluate cell viability upon NAC treatment, tonsil-derived human MSCs (hMSC-T, passage 6) were seeded in a culture medium at a density of 1×10^3 cells/well. On the following day, NAC was treated at concentrations of 10 mM and 20 mM for 24 hours. Thereafter, the cells were washed with PBS and the medium was replaced, followed by treatment with PYBR at concentrations of 5, 10, and 20 μg/mL. After 24 hours, the cells were washed three times with PBS and transferred to fresh medium (100 μL) containing 10 μL of WST solution, and incubated at 37° C. for 2 hours in the dark. Absorbance at 450 nm was then measured to evaluate cell viability (FIG. 2). A group not treated with NAC was used as a positive control.

## CC(=O)NC(CS)C(=O)O (stereo not drawn) [NAC, 2-acetamido-3-sulfanylpropanoic acid]
[1]
  ROS levels after PYBR treatment: significantly reduced ROS levels
[2]
  cytotoxicity (cell viability): no cytotoxicity was observed
[3]
  cell viability after PYBR treatment: significantly restored cell viability
